Reference: ChEMBL document CHEMBL1134716, “Synthesis and evaluation of GGPP geometric isomers: divergent substrate specificities of FTase and GGTase I” (Bioorg Med Chem Lett, 2001)

Assays:
[1] = target: Protein farnesyltransferase (Homo sapiens) (UniProt P49354+P49356); experiment: Activity as substrate for recombinant mammalian Farnesyltransferase expressed in baculovirus; activity expressed as Vmax relative to the Vmax of E,E-FPP
[2] = tested on: CC(C)=CCC/C(C)=C/CC/C(C)=C/CC/C(C)=C\COP(=O)(O)OP(=O)(O)O; experiment: (§1) Kinetic constant for recombinant mammalian Farnesyltransferase expressed in baculovirus by fluorescence assay
[3] = tested on: CC(C)=CCC/C(C)=C/CC/C(C)=C\CC/C(C)=C/COP(=O)(O)OP(=O)(O)O; experiment: as §1
[4] = tested on: CC(C)=CCC/C(C)=C/CC/C(C)=C\COP(=O)(O)OP(=O)(O)O; experiment: as §1
[5] = tested on: CC(C)=CCC/C(C)=C\CC/C(C)=C/COP(=O)(O)OP(=O)(O)O; experiment: as §1

Compound	Krel [1]	other results
CC(C)=CCC/C(C)=C/CC/C(C)=C/CC/C(C)=C\COP(=O)(O)OP(=O)(O)O	0.67	–
CC(C)=CCC/C(C)=C/CC/C(C)=C\CC/C(C)=C/COP(=O)(O)OP(=O)(O)O	0.4	–
CC(C)=CCC/C(C)=C/CC/C(C)=C\COP(=O)(O)OP(=O)(O)O	0.47	–
CC(C)=CCC/C(C)=C\CC/C(C)=C/COP(=O)(O)OP(=O)(O)O	0.41	–
Protein farnesyltransferase (Homo sapiens) (from UniProt P49354+P49356)	–	Km [2]: 0.021 µM; Km [3]: 0.481 µM; Km [4]: 0.225 µM; Km [5]: 0.136 µM
